Test results reported in patent US6831100B2, “Menthyl benzoate formulations for external UV protection” (priority 2000, dated 2004).

Columns and labels:
[1] = tested on: Escherichia coli wild type strain CA 8000; test: UV protection assay for bacteria cultivated in presence of the compounds; format: cell-based; details: for Titre estimated (cfu), Initial: bacteria grown in presence of compound, before UV exposure, control 3.73 × 10^7; for Killing % in comparison to the control: bacteria grown with compound, UV exposed
Description: (§1) UV light is not only harmful to humans but also to all other biological systems including microorganisms. The majority of the studies of the effect of UV light on microbes and its modes of action have shown the formation of thymidine dimers, which cause mutations and excessive exposure thus leads to death of the bacteria. […] Therefore, the assays involving the screening of potential UV protectant compounds against bacterial system exposure in presence and absence of test compound is easy, less time consuming and environmentally safe. We carried out simple experiments involving the bacterium Escherichia coli (Wild type) (Kumar, 5. 1976. Journal of Bacteriology, 125: 545-555) as the test system. Escherichia coli is a Gram negative bacterium and sensitive to ultraviolet light. The bacterial cells were grown in broth cultures were exposed to UV light for different time periods and the survival in terms of colony forming units was determined to estimate the killing percentage. The experiments comprised of a series of different steps in two distinct manners/routes (Example 1 and 2 below). In these examples, various quantities were mentioned are not confined to the said limits but can be variable depending upon the need and scale of experiment or screen to be employed. Two different approaches as described below were followed. In one case, the bacterial cells were grown in presence of the test compound and then exposed to UV while, in other case the bacteria were exposed to the two wavelength of UV light filtered through a UV transparent film coated with the compound and using uncoated film as control.
UV Protection Assays for the Bacteria Cultivated in Presence of the Compounds
(§2) Step A: Growing bacterial cultures: The wild type strain CA 8000 of Escherichia coli was in the assays. A single colony was inoculated in 5 ml Luria broth and incubated at 37° C. temperature for 16 hour in a water bath shaker. Bacteria were grown in presence of test compounds with plain LB as growth medium.
Step B: Determining killing percentage of bacteria in relation to UV exposure time: This was done in the following steps.
a. The broth culture was diluted to 10 times in sterile water.
b. About 0.3 ml of the diluted bacterial suspension was transferred to the petriplates forming a thin layer at the bottom (in replicates).
c. In the dark room a UV source was placed at least 10 cm above the plates (This distance may vary depending upon the need of the experiment)
d. The cfu (colony forming unit) count was determined by serially diluting the exposed and control bacteria and plating on the Luria agar plate followed by counting the viable units of the bacteria forming colonies upon incubation at 37° C. overnight.
These two exposure levels were used further in our experiment to test the efficacy of different compounds for UV protection.
Step C: The bacterial cultures were grown in presence of different concentrations of the test compounds, exposed in the same way as in step B and viable cfu count was determined.

[2] = tested on: Escherichia coli wild type strain CA 8000; test: UV protection assay through compound-coated UV transparent film; format: cell-based; details: for Protection (%) / Titre after UV exposure, film coated with menthyl benzoate / Killing (%), film coated with menthyl benzoate: film coated 50 μg per ml, 312 nm; for Titre after UV exposure, film coated with menthyl benzoate: initial titre 2.490 × 10^8
Description: as §1
Exposure of the Bacteria to UV Light Through a UV Transparent Film Coated with the Compound
as §2, with “wild type strain, CA 8000” for “wild type strain CA 8000”, “coli was used in the” for “coli was in the”
Step B: The bacterial culture was harvested by centrifugation and pellet was suspended in equal amount of sterile distilled water. The bacterial pellet was harvested by centrifuging at 5000 RPM for 10 minute and suspended in 25 ml sterile distilled water.
Step C: About 0.3 ml of the broth culture of the bacteria was transferred to petriplates forming a thin layer at the bottom (in replicates). At least 5 replicates per treatment were used along with control plates containing bacteria.
Step D: The plates were covered with UV transparent film, which was coated with different concentrations of the test compounds.
Step E: In the dark room a UV source was placed at least 10 cm above the plates (which may vary depending upon the experiment). In this invention, the UV torch emitting two-fixed wavelength (312 nm and 365 nm) was used.
Step F: Light source was switched-on for different time intervals for the predetermined lethality levels based on the killing curve of control bacteria determined by UV exposure through uncoated film.
Step G: The viable cfu (colony forming unit) count was determined by serially diluting the exposed and control bacteria and then plating on the Luria agar plates followed by counting the viable units of the bacteria forming colonies (Table 1).

[3] = 120 seconds UV exposure (LD70), control 1.119 × 10^7
[4] = 120 seconds UV exposure, control 70.00%
[5] = 150 seconds UV exposure (LD80), control 0.746 × 10^7
[6] = 150 seconds UV exposure, control 80.00%
[7] = UV exposure equivalent to lethality level 10%
[8] = UV exposure equivalent to lethality level 25%
[9] = UV exposure equivalent to lethality level 50%

Structure (SMILES): O=C(OCc1ccccc1)c1ccccc1 [Benzyl benzoate, Benzyl Benzoate]
- Titre estimated (cfu), final after UV exposure [1, 3]: 1.460 × 10^7 cfu
- Killing (%) after UV exposure [1, 4]: 60.86%
- Titre estimated (cfu), final after UV exposure [1, 5]: 1.240 × 10^7 cfu
- Killing (%) after UV exposure [1, 6]: 66.75%
- Titre estimated (cfu), Initial [1]: 3.73 × 10^7 cfu
- Killing % in comparison to the control [1]: much less in comparison to the control

Structure (SMILES): O=C(CC(=O)c1ccccc1)c1ccccc1 [Dibenzoyl methane]
- Titre estimated (cfu), final after UV exposure [1, 3]: 1.162 × 10^7 cfu
- Killing (%) after UV exposure [1, 4]: 68.85%
- Titre estimated (cfu), final after UV exposure [1, 5]: 1.050 × 10^7 cfu
- Killing (%) after UV exposure [1, 6]: 71.85%
- Titre estimated (cfu), Initial [1]: 3.73 × 10^7 cfu
- Killing % in comparison to the control [1]: much less in comparison to the control

Structure (SMILES): CC1CCC(C(C)C)C(OC(=O)c2ccccc2)C1 (stereo not shown) [Menthyl benzoate, Menthyl Benzoate]
- Protection (%) [2, 7]: 70.01%
- Titre after UV exposure, film coated with menthyl benzoate [2, 7]: 2.415 × 10^8 cfu per ml
- Killing (%), film coated with menthyl benzoate ([2]; UV exposure equivalent to lethality level 10%, uncoated film 10.04%): 3.01%
- Protection (%) [2, 8]: 24.58%
- Titre after UV exposure, film coated with menthyl benzoate [2, 8]: 2.020 × 10^8 cfu per ml
- Killing (%), film coated with menthyl benzoate ([2]; UV exposure equivalent to lethality level 25%, uncoated film 25.02%): 18.87%
- Protection (%) [2, 9]: 12.67%
- Titre after UV exposure, film coated with menthyl benzoate [2, 9]: 1.400 × 10^8 cfu per ml
- Killing (%), film coated with menthyl benzoate ([2]; UV exposure equivalent to lethality level 50%, uncoated film 50.12%): 43.77%
- Effect on percentage of lethality of the bacteria ([2]; at all levels of lethality tested): reduced the percentage of lethality of the bacteria
- Most optimum concentration coated on the film for UV protection ([2]; out of all concentrations coated on the film, higher concentration does not substantially increase protection): 50 μg per ml
- UV protection in comparison to other known UV protectants ([1]; 50 μg/ml in culture): significant protection
- Titre estimated (cfu), final after UV exposure [1, 3]: 1.660 × 10^7 cfu
- Killing (%) after UV exposure [1, 4]: 55.49%
- Titre estimated (cfu), final after UV exposure [1, 5]: 1.300 × 10^7 cfu
- Killing (%) after UV exposure [1, 6]: 65.15%
- Titre estimated (cfu), Initial [1]: 3.73 × 10^7 cfu
- Protection efficiency, comparison between compounds ([1]; descending series of the three compounds): better protectant than the commercially used dibenzoyl methane
- Safety to the bacterial system: titre (cfu) when bacteria are grown in presence of the compound ([1]; treated versus untreated cultures, no UV): no decrease of titre was observed
